This experiment can be described thus: Antagonist activity at CRTH2 receptor in human eosinophils by ESC assay.

Usually IC50 stands for the midpoint of a concentration-inhibition curve. Low readings indicate greater potency in that assay, high ones weaker potency in that assay. For the compound `Cc1c(CC(=O)O)c2ccncn2c1Cc1ccccc1S(=O)(=O)c1ccccc1`, the IC50 stood at 12 nM.
For the compound `COc1ccc(S(=O)(=O)c2ccc(F)cc2)c(Cc2c(C)c(CC(=O)O)c3ccncn23)c1`, the IC50 stood at 6 nM.

The record behind these values is BindingDB's records for doi:10.1016/j.ejmech.2016.02.023 (Rhône-Poulenc Rorer, 2016).
